For experiment [1], the system named is A549 lung cancer cell line. Put plainly: Cell survival assay (CCK-8), A549. The following applies: Homo sapiens, A549 cells, 72 h incubation. Format: cell-based. The method, then: (§1) Biological Example 3. Cell Survival Assay for Small Molecule Compounds
(§2) The specific procedure was carried out as follows:
(§3) 1. 600 μL of trypsin was added to a T75 cell culture flask, it was digested in a 37° C. incubator for about 1 min, then 5 mL of DMEM complete medium was added, which was blowed evenly, transferred to a 15 mL centrifuge tube, and centrifuged at 1000 rpm for 4 min;
(§4) 2. The supernatant was discarded, 5 mL of DMEM complete medium was added, which was blowed evenly, and then mixed with 10 μL of cell suspension and 10 μL of 0.4% trypan blue, and reading was recorded using a cell counter;
(§5) 3. Cells of […] different cell lines (MHCC97H, HuH7, HepG2, A549, 8505C) were seeded in 96-well plates at a cell density of 6000 cells/80 μL of complete medium/well, and cultured overnight. Only sterile water was added in the outer 36 wells of the 96-well plates, and the remaining inside 60 wells were used for cell experiments and controls;
(§6) 4. Dilution of compounds: a total of 10 concentrations of the compounds were obtained using a 3-fold dilution from the starting concentration of 10 mM.
(§7) 5. 20 μL of different compounds in different concentrations were added to each corresponding well, and the remaining wells were added with 20 μL of complete medium, the plate was shaked, and the concentration of DMSO in each well is 0.25%.
(§8) 6. After incubation for 72 h, 10 μL of CCK-8 reagent was added to each well, and cultured at 37° C. for 1-2 h; the OD value was read at 450 nm.
(§9) 7. Cell Viability (%)=[(As−Ab)/(Ac−Ab)]*100% • As: Experimental well (medium containing cells, CCK-8, compound) • Ac: Control well (medium containing cells, CCK-8) • Ab: Blank well (medium without cell and compound, CCK-8)
(§10) Table (3) lists the determination results of the activity of representative compounds of the present disclosure against various cancer cells, wherein MHCC97H, HuH7, and HepG2 are liver cancer cell lines, A549 is a lung cancer cell line, and 8505C is a thyroid cancer cell line.

Experiment [2] has as its system MHCC97H liver cancer cell line. The experiment in a line: Cell survival assay (CCK-8), MHCC97H. Format: cell-based. The following applies: Homo sapiens, MHCC97H cells, 72 h incubation. The method, then:
as §1, §2, §3, §4, §5, §6, §7, §8, §9, §10

Experiment [3] relates to HepG2 liver cancer cell line. Put plainly: Cell survival assay (CCK-8), HepG2. Type of experiment: cell-based. The following applies: Homo sapiens, HepG2 cells, 72 h incubation. As to the method: as §1, §2, §3, §4, §5, §6, §7, §8, §9, §10
In experiment [4] the test system is HuH7 liver cancer cell line. Put plainly: Cell survival assay (CCK-8), HuH7. Format: cell-based. The following applies: Homo sapiens, Huh-7, HuH7 cells, 72 h incubation. The method, then: as §1, §2, §3, §4, §5, §6, §7, §8, §9, §10
Experiment [5] addresses C-RAF (Homo sapiens (Human), UniProt P04049). Put plainly: Test of small molecule compounds for inhibiting the activity of C-RAF kinase (ADP-Glo).
Description: (§11) Test of Small Molecule Compounds for Inhibiting the Activity of C-RAF and B-RAF Kinases
The test was carried out as follows:
(§12) 1. Preparation of test compounds: according to the molecular weight of the compounds, an appropriate volume of DMSO was directly added to dissolve the test compounds. For storing the compound, the concentration of DMSO is 100%, and the final concentration of DMSO in the experimental system is 1%.
(§13) Enzyme: B-RAF: 0.1 ng/l (the final concentration in the reaction system); C-RAF: 0.1 ng/μl (the final concentration in the reaction system)
(§14) HPE: the reaction without enzyme (1% DMSO)
(§15) ZPE: the reaction with enzyme but without compound (1% DMSO)
(§16) a) 1 ul of 10-fold diluted compound or 10% DMSO was added to a 384-well assay plate,
(§17) b) 4 ul enzyme solution or assay buffer was added to the wells of the assay plate,
(§18) c) the plate was centrifuged at 1000 rpm for 1 minute to homogeneous,
(§19) d) 5 ul of ATP-substrate mixture was added to the wells of the assay plate,
(§20) e) the plate was shaked for mixing for 2 minutes,
(§21) f) the plate was incubated at 30° C. for 1 hour,
(§22) g) 10 ul of ADP-Glo reagent was added to the wells of the assay plate, and the plate was incubated for 40 minutes at 27° C.,
(§23) h) 20 ul of kinase assay solution was added to the wells of the plate, and the plate was incubated for 30 minutes at 27° C.,
(§24) i) the chemiluminescent signal was read with Envision.
(§25) The IC50 values of the positive control compound and the test compounds were calculated using the Prism software according to the variable slope of the curve.
The target of experiment [6] is VEGFR-2 kinase (Homo sapiens (Human), UniProt P35968). The experiment in a line: Test of small molecule compounds for inhibiting the activity of VEGFR-2 kinase. Format: biochemical. To be noted: class symbols A-D. A digest of the protocol:
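Kinase pre-incubated with diluted compounds for 30 min at room temperature, then substrate/ATP mix added and reaction run 60 min at room temperature in the dark […]. Signal read on a plate reader.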

Experiment [7] addresses B-RAF (Homo sapiens (Human), UniProt P15056). Put plainly: Test of small molecule compounds for inhibiting the activity of B-RAF kinase (ADP-Glo).
Description: as §11
The test was carried out as follows:
as §12, §13, §14, §15, §16, §17, §18, §19, §20, §21, §22, §23, §24, §25
Experiment [8] concerns 8505C thyroid cancer cell line. The experiment in a line: Cell survival assay (CCK-8), 8505C. Type of experiment: cell-based. To be noted: Homo sapiens, 8505C cells, 72 h incubation. As to the method:
as §1, §2, §3, §4, §5, §6, §7, §8, §9, §10

pIC50: −log10 of the molar value.

C-RAF, sequence (P04049 whole entry): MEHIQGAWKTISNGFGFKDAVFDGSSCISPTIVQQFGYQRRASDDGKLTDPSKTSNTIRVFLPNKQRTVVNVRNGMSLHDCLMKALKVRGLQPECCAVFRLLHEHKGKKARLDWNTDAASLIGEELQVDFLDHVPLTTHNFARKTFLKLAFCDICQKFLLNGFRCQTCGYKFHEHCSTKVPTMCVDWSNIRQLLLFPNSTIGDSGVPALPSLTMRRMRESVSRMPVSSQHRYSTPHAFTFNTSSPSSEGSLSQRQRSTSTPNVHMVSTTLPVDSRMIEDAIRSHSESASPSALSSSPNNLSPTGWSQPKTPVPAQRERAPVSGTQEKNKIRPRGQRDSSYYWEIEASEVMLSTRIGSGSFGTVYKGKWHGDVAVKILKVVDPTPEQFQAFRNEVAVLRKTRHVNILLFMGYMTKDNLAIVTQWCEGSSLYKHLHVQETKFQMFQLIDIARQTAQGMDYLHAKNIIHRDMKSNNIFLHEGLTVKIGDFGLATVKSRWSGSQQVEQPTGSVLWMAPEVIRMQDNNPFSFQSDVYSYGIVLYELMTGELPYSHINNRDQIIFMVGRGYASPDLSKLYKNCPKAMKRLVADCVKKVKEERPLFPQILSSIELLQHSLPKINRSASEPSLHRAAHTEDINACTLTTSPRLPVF
B-RAF, sequence (P15056 whole entry): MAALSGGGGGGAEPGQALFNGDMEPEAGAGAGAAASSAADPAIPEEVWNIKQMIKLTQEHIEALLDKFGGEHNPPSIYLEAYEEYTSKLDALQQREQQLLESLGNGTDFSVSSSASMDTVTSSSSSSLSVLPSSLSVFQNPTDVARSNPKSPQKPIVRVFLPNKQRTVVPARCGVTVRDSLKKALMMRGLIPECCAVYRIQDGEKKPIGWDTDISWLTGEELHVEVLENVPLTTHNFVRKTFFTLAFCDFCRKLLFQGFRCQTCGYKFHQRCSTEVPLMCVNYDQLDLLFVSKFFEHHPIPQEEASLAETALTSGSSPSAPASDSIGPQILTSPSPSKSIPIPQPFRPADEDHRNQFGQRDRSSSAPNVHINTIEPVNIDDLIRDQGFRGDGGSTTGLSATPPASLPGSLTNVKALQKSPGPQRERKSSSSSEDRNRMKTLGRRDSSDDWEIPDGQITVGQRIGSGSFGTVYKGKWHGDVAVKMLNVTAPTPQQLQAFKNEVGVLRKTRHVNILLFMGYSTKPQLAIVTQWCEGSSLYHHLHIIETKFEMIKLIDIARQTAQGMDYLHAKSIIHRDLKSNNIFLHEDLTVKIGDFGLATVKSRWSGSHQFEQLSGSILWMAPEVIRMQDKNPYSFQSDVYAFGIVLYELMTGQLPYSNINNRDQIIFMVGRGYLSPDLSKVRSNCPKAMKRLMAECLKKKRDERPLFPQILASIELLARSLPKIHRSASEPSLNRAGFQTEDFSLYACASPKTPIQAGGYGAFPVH
VEGFR-2 kinase, sequence (P35968 20-1356): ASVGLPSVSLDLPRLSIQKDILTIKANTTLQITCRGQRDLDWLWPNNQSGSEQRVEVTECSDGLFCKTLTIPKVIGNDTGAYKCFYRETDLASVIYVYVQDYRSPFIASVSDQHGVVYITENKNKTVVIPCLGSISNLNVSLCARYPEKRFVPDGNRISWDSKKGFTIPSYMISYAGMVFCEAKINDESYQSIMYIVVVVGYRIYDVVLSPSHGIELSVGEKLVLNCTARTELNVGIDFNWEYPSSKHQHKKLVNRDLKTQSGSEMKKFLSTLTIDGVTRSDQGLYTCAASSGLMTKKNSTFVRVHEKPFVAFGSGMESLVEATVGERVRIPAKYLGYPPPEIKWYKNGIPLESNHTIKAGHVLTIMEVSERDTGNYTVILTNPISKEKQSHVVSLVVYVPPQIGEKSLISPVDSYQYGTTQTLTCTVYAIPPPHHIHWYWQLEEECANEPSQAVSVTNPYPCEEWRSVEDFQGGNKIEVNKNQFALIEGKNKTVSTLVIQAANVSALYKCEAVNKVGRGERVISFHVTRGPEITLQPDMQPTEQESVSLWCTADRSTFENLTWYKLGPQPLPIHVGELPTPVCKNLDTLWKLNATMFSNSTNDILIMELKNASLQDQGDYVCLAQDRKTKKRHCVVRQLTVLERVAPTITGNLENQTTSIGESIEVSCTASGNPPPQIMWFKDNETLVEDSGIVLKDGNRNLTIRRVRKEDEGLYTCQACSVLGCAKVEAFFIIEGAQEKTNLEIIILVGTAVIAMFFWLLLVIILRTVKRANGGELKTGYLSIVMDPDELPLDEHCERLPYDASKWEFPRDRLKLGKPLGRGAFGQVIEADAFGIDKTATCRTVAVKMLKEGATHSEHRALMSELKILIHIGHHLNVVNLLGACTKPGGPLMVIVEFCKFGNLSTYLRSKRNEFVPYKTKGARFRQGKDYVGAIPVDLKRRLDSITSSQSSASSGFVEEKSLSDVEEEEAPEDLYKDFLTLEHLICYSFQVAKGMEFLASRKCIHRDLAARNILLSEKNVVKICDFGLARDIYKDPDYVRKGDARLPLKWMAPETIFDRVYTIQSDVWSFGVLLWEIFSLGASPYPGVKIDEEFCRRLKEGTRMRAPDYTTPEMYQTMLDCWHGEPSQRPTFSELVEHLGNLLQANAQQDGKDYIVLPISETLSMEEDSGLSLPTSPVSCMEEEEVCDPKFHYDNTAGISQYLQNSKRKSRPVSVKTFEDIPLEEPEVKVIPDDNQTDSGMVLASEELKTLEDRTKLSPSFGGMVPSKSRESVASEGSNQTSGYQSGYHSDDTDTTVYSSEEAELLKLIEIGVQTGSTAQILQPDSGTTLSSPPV

Turning to `COc1cc2ncnc(Oc3ccc(NC(=O)Nc4ccc(Cl)c(C(F)(F)F)c4)cc3)c2c2c1OCCO2` [Example 18, 1-(4-chloro-3-(trifluoromethyl)phenyl)-3-(4-((5-methoxy-2,3-dihydro-[1,4]dioxino[2,3-f]quinazolin-10-yl)oxy)phenyl)urea], the pIC50 in experiment [1] is 5.98; in experiment [2], below 5.60; in experiment [3], 5.76; in experiment [4], 5.88; in experiment [5] it was 6.30 to 6.70; in experiment [6], above 7.30. Also, the pIC50 is 6.30 to 6.70 in experiment [7] and 7.63 in experiment [8].
Take `COc1cc2ncnc(Oc3ccc(NC(=O)Nc4cc(C(F)(F)F)ccc4F)cc3)c2c2c1OCCO2` [Example 20, 1-(2-fluoro-5-(trifluoromethyl)phenyl)-3-(4-((5-methoxy-2,3-dihydro-[1,4]dioxino[2,3-f]quinazolin-10-yl)oxy)phenyl)urea]: the pIC50 in experiment [1] was 5.95; in experiment [2], 5.76; in experiment [3] it was 6.52; in experiment [4], 6.07; in experiment [5], […]; in experiment [6], above 7.30. The pIC50 in experiment [7] was […]; in experiment [8] it was 7.69.
As for `COCCOc1cc2ncnc(Oc3ccc(NC(=O)NC4CC4)c(Cl)c3)c2c2c1OCCO2` [Example 45, 1-(2-chloro-4-((5-(2-methoxyethoxy)-2,3-dihydro-[1,4]dioxino[2,3-f]quinazolin-10-yl)oxy)phenyl)-3-cyclopropylurea], the pIC50 was below 6.00 in experiment [5], above 7.30 in experiment [6] and below 6.00 in experiment [7].
`COCCOc1cc2ncnc(Oc3ccc(NC(=O)Nc4ccc(Cl)c(C(F)(F)F)c4)cc3)c2c2c1OCCO2` [Example 46, 1-(4-chloro-3-(trifluoromethyl)phenyl)-3-(4-((5-(2-methoxyethoxy)-2,3-dihydro-[1,4]dioxino[2,3-f]quinazolin-10-yl)oxy)phenyl)urea]: the pIC50 in experiment [1] was 6.37; in experiment [2] it was below 5.60; in experiment [3], 5.63; in experiment [4], 5.90; in experiment [5] it was 6.00 to 6.30; in experiment [6] it was above 7.30. Further, the pIC50 was 6.00 to 6.30 in experiment [7] and 8.07 in experiment [8].
Take `COCCOc1cc2ncnc(Oc3ccc(NC(=O)Nc4cc(C(F)(F)F)ccc4F)cc3)c2c2c1OCCO2` [Example 47, 1-(2-fluoro-5-(trifluoromethyl)phenyl)-3-(4-((5-(2-methoxyethoxy)-2,3-dihydro-[1,4]dioxino[2,3-f]quinazolin-10-yl)oxy)phenyl)urea]: the pIC50 in experiment [1] was 6.71; in experiment [2], 6.15; in experiment [3], 6.91; in experiment [4] it was 6.23; in experiment [5], […]; in experiment [6] it was above 7.30. The results for the pIC50 in experiment [7] and in experiment [8] were […] and 8.27, respectively.
On to `COCCOc1cc2ncnc(Oc3ccc(NC(=O)Nc4ccc(Cl)c(C(F)(F)F)c4)c(F)c3)c2c2c1OCCO2` [Example 48, 1-(4-chloro-3-(trifluoromethyl)phenyl)-3-(2-fluoro-4-((5-(2-methoxyethoxy)-2,3-dihydro-[1,4]dioxino[2,3-f]quinazolin-10-yl)oxy)phenyl)urea], for which the pIC50 in experiment [1] is 6.23; in experiment [2] it was 5.91; in experiment [3], 6.03; in experiment [4] it was 5.90; in experiment [5] it was 6.30 to 6.70; in experiment [6], above 7.30. Moreover, the negative logarithm of the IC50 (pIC50) in experiment [7] is above 6.70; in experiment [8], 7.66.
Turning to `COCCOc1cc2ncnc(Oc3ccc(NC(=O)Nc4ccc(F)cc4F)c(F)c3)c2c2c1OCCO2` [Example 49, 1-(2,4-difluorophenyl)-3-(2-fluoro-4-((5-(2-methoxyethoxy)-2,3-dihydro-[1,4]dioxino[2,3-f]quinazolin-10-yl)oxy)phenyl)urea], the pIC50 in experiment [5] was below 6.00; in experiment [6], above 7.30; in experiment [7] it was below 6.00.
Turning to `COCCOc1cc2ncnc(Oc3ccc(NC(=O)Nc4cccc(OC)c4)cc3)c2c2c1OCCO2` [Example 50, 1-(4-((5-(2-methoxyethoxy)-2,3-dihydro-[1,4]dioxino[2,3-f]quinazolin-10-yl)oxy)phenyl)-3-(3-methoxyphenyl)urea], the negative logarithm of the IC50 (pIC50) is below 6.00 in experiment [5], above 7.30 in experiment [6] and below 6.00 in experiment [7].
`O=C(Nc1ccc(Oc2ncnc3cc(OCCCN4CCCC4)c4c(c23)OCCO4)cc1Cl)NC1CC1` [Example 62, 1-(2-chloro-4-((5-(3-(pyrrolidin-1-yl)propoxy)-2,3-dihydro-[1,4]dioxino[2,3-f]quinazolin-10-yl)oxy)phenyl)-3-cyclopropylurea]: the pIC50 is below 6.00 in experiment [5], above 7.30 in experiment [6] and below 6.00 in experiment [7].
Turning to `O=C(Nc1ccc(Oc2ncnc3cc(OCCCN4CCOCC4)c4c(c23)OCCO4)cc1Cl)NC1CC1` [Example 64], the pIC50 was below 6.00 in experiment [5], above 7.30 in experiment [6] and below 6.00 in experiment [7].
Turning to `O=C(Nc1ccc(Oc2ncnc3cc(OCCCN4CCOCC4)c4c(c23)OCCO4)cc1)Nc1cc(C(F)(F)F)ccc1F` [Example 65, 1-(2-fluoro-5-(trifluoromethyl)phenyl)-3-(4-((5-(3-morpholinopropoxy)-2,3-dihydro-[1,4]dioxino[2,3-f]quinazolin-10-yl)oxy)phenyl)urea], the results for the negative logarithm of the IC50 (pIC50) in experiment [5], in experiment [6] and in experiment [7] were […], above 7.30 and […], respectively.
For `O=C(Nc1ccc(Oc2ncnc3cc(OCCCN4CCOCC4)c4c(c23)OCCO4)cc1)Nc1ccc(Cl)c(C(F)(F)F)c1` [Example 66, 1-(4-chloro-3-(trifluoromethyl)phenyl)-3-(4-((5-(3-morpholinopropoxy)-2,3-dihydro-[1,4]dioxino[2,3-f]quinazolin-10-yl)oxy)phenyl)urea], the pIC50 in experiment [5] was 6.30 to 6.70; in experiment [6], above 7.30; in experiment [7], 6.30 to 6.70.
For `O=C(Nc1ccc(Oc2ncnc3cc(OCCCN4CCOCC4)c4c(c23)OCCO4)c(F)c1)Nc1cc(C(F)(F)F)ccc1F` [Example 67, 1-(3-fluoro-4-((5-(3-morpholinopropoxy)-2,3-dihydro-[1,4]dioxino[2,3-f]quinazolin-10-yl)oxy)phenyl)-3-(2-fluoro-5-(trifluoromethyl)phenyl)urea], the pIC50 in experiment [5] was 6.00 to 6.30; in experiment [6] it was above 7.30; in experiment [7], 6.30 to 6.70.
For `O=C(Nc1ccc(Oc2ncnc3cc(OCCCN4CCOCC4)c4c(c23)OCCO4)c(F)c1)Nc1ccc(Cl)c(C(F)(F)F)c1` [Example 68, 1-(4-chloro-3-(trifluoromethyl)phenyl)-3-(3-fluoro-4-((5-(3-morpholinopropoxy)-2,3-dihydro-[1,4]dioxino[2,3-f]quinazolin-10-yl)oxy)phenyl)urea] the same measures were 6.00 to 6.30, above 7.30 and 6.30 to 6.70.

Broadly, the pIC50 is the negative decadic logarithm of the IC50, by convention in mol/L. A high value points to a small IC50.
